The nature of series [1]: Application to human skin and mucous membranes. The following applies: freshly prepared from HOCl containing 200 ppm of Cl.
The conditions of series [2]: in solution; cited from earlier work.
The test system of series [3] is spores of Bacillus subtilis. Briefly: Inactivation of Bacillus subtilis spores by HOBr and HOCl. Format: cell-based.
Series [4] relates to infectious proteins. The class given is biochemical.

`OBr` [HOBr, hypobromous acid]: in series [1], the “adverse effects on epithelial surfaces” value is on record as “without any indication of adverse effects”. The pKa entry in series [2] is recorded as “higher than HOCl”. This compound also gave an LRV in series [3] (HOBr approximately 25 ppm, 20 seconds) of 6. Moreover, in series [4], the “inactivation of infectious proteins” value was “comparable levels to those achieved using HOCl”.

As for `OCl` [HOCl, hypochlorous acid], the pKa entry in series [2] is reported as “about 7.5”. Also, the “effect on Bacillus spores” value in series [3] (HOCl 25 ppm, 20 seconds of contact) was “no detectable effect”. The same compound came in with an LRV in series [3] (HOCl 230 ppm, 20 seconds) of 6. The LRVs in series [3] (HOCl below 230 ppm, 20 seconds) is listed as 2-4.
